# Assays:
# Assay type in all cases: in vivo
# [1] = tested on: human osteosarcoma cell line (HOS); assay: Tumor growth inhibitory activity against human osteosarcoma cell line (HOS) subcutaneous transplantation models; conditions: HOS s.c. xenograft in NOD SCID mice, lenvatinib mesylate 3 mg/kg p.o. Day 1-7, ifosfamide 250 mg/kg i.p. Day 1, etoposide 8 mg/kg i.p. Day 2-4, control group 468.6
# Procedure: Tumor growth inhibitory activity of the combined use of lenvatinib, ifosfamide, and etoposide against human osteosarcoma cell line (HOS) subcutaneous transplantation models
# Using 6 NOD SOD mice (NOD.CB17-Prkdc^scid/J, female mice, Charles River Laboratories Japan, Inc.) in each group, antitumor effects were evaluated when lenvatinib alone, a combination of two agents, i.e., ifosfamide and etoposide, or a combination of three agents, i.e., lenvatinib, ifosfamide, and etoposide, was administered. Cells of osteosarcoma cell line HOS (Human Science Research Resources Bank, IFO50106) derived from human were suspended at a concentration of 1×10^8 cells/mL, and 0.1 mL of the suspension was subcutaneously transplanted to the right of each mouse.
# The longest diameter and short axis of the tumor were measured with an electronic digital caliper (Digimatic (tread mark) Caliper, Mitutoyo Corporation) 18 days after transplantation. The mice were divided into groups so that the average value of the tumor volume of each group was almost equal (Day 1). The tumor volume was calculated according to the following equation: Tumor volume=longest diameter(mm)×short axis(mm)×short axis(mm)/2
# Lenvatinib mesylate was dissolved in purified water to a concentration of 0.3 mg/mL. […]
# (§1) The tumor volume of each mouse was measured 8 days (Day 8) after the start of administration.
# [2] = tested on: human osteosarcoma cell line (143B); assay: Tumor growth inhibitory activity against human osteosarcoma cell line (143B) subcutaneous transplantation models; conditions: 143B s.c. xenograft in NOD SCID mice, lenvatinib mesylate 3 mg/kg p.o. Day 1-7, ifosfamide 250 mg/kg i.p. Day 1, etoposide 8 mg/kg i.p. Day 2-4, control group 785.4
# Procedure: Using 6 NOD SCID mice (NOD.CB17-Prkdc^scid/J, female mice, Charles River Laboratories Japan, Inc.) in each group, antitumor effects were evaluated when lenvatinib alone, a combination of two agents, i.e., ifosfamide and etoposide, or a combination of three agents, i.e., lenvatinib, ifosfamide, and etoposide, was administered. Cells of osteosarcoma cell line 143B (ATCC CRL-8303) derived from human were suspended at a concentration of 1×10^7 cells/mL, and 0.1 mL of the suspension was subcutaneously transplanted to the right flank of each mouse.
# The longest diameter and short axis of the tumor were measured with an electronic digital caliper (Digimatic (tread mark) Caliper, Mitutoyo Corporation) 9 days after transplantation. The mice were divided into groups so that the average value of the tumor volume of each group was almost equal (Day 1). The tumor volume was calculated according to the following equation: Tumor volume=longest diameter(mm)×short axis(mm)×short axis(mm)/2
# Lenvatinib mesylate was dissolved in purified water to a concentration of 0.3 mg/mL. Ifosfamide (Sigma Aldrich) was dissolved in a physiological saline solution to a concentration of 25 mg/mL. […]
# as §1
# [3] = tested on: human osteosarcoma cell line (G-292 clone A141B1); assay: Tumor growth inhibitory activity against human osteosarcoma cell line (G-292 clone A141B1) subcutaneous transplantation models; conditions: G-292 clone A141B1 s.c. xenograft in NOD SCID mice, lenvatinib mesylate 3 mg/kg p.o. Day 1-7, ifosfamide 250 mg/kg i.p. Day 1, etoposide 8 mg/kg i.p. Day 2-4, control group 362.5
# Procedure: Using 6 NOD SCID mice (NOD.CB17-Prkdc^scid/J, female mice, Charles River Laboratories Japan, Inc.) in each group, antitumor effects were evaluated when lenvatinib alone, a combination of two agents, i.e., ifosfamide and etoposide, or a combination of three agents, i.e., lenvatinib, ifosfamide, and etoposide, was administered. Cells of osteosarcoma cell line G-292 clone A141B1 (JCRB Cell Bank, IFO50107) derived from human were suspended at a concentration of 1×10^8 cells/mL, and 0.1 mL of the suspension was subcutaneously transplanted to the right flank of each mouse.
# The longest diameter and short axis of the tumor were measured with an electronic digital caliper (Digimatic (tread mark) Caliper, Mitutoyo Corporation) 29 days after transplantation. The mice were divided into groups so that the average value of the tumor volume of each group was almost equal (Day 1). The tumor volume was calculated according to the following equation: Tumor volume=longest diameter(mm)×short axis(mm)×short axis(mm)/2
# Lenvatinib mesylate was dissolved in purified water to a concentration of 0.3 mg/mL. lfosfamide (Sigma Aldrich) was dissolved in a physiological saline solution to a concentration of 25 mg/mL. […]
# as §1
smiles,measurement,setting,value
"COc1cc2nccc(Oc3ccc(NC(=O)NC4CC4)c(Cl)c3)c2cc1C(N)=O [Lenvatinib, 4-(3-chloro-4-(cyclopropylaminocarbonyl)aminophenoxy)-7-methoxy-6-quinolinecarboxamide]",Average tumor volume (Day 8),[1],352.2 mm^3
same,Average tumor volume (Day 8),[2],438.6 mm^3
same,Average tumor volume (Day 8),[3],267.9 mm^3

# — patent US12220398B2, “Tumor therapeutic agent” (Eisai R&D Management Co., Ltd., priority 2015, dated 2025)
